Data taken from patent US8496928B2, “Method for preventing and treating cardiovascular diseases with BRCA1” (priority 2008, dated 2013).

Experiments:
Assay type in all cases: cell-based, human
GADD45, p21 and p53 = test: Western blot of GADD45, p21 and p53 in HUVECs; details: TNFα
Description: In FIG. 25A cell cycle progression was assessed after adenoviral (ad-null or ad-BRCA1) infection of HUVECs and 24 hours of TNFα (20 ng/ml) treatment followed by Propidium Iodide staining coupled with flow cytometry. […] GAPDH was used as a loading control.
(§1) Western blot analysis was performed according to standard procedures. Proteins from whole cell lysates of HUVECs were resolved on SDS-polyacrylamide gels and transferred to nitrocellulose membranes (Bio-Rad). Membranes were probed with primary antibodies from Santa Cruz (BRCA1), Cell Signaling (p53, p21, Ser1177-phospho-eNOS, Akt, Ser473-phospho-Akt, cleaved caspase-3), Chemicon (GADD45a, GAPDH) and BD (eNOS). Immunoblots were incubated with the appropriate horseradish peroxidase-associated secondary antibodies before signals were visualized by chemiluminescence via the ECL detection system (GE Healthcare).

HUVECs = test: HUVEC migration assay; details: TNFα 20 ng/ml
Description: In FIG. 24A ad-null or ad-BRCA1 infected cells were trypsinized and seeded in the presence and absence of TNFα (20 ng/ml) on coated inserts and a colorimetric assay was performed after 24 hours. Migration was calculated as a percentage of ad-null controls. (n=4, **p<0.01). In FIG. 24B, ad-null or ad-BRCA1 infected HUVECs were seeded onto matrigel in the presence or absence of TNFα (20 ng/ml). Images were taken 5 hours after seeding (original magnification 20×). In FIG. 24C data was semi-quantitatively analyzed by counting tubular structures in four fields per group. Data is presented as mean±SD (n=3 in triplicate, *p<0.05, **p<0.01). HUVECs infected with ad-null or ad-BRCA1 were treated for 24 hours with TNFα (20 ng/ml). VCAM1 (FIG. 24D, FIG. 24E), ICAM1 (FIG. 24F, FIG. 24G) and E-selectin (FIG. 24H, FIG. 24I) protein and transcript expression were determined in cell extracts via western blots and real-time PCR, respectively. […] Data are expressed as mean±SD (n=3, **p<0.01).
The migratory function of HUVECs was determined with the CytoSelect™ 24-Well Cell Migration Fluorometric Assay (Cell Biolabs). […] Following 12 hours at 37° C., migratory cells were dissociated from the underside of the insert membrane, lysed and stained with the Lysis Buffer/CyQuant® GR dye solution before being fluorescently quantified. […]

eNOS, Akt, VEGFa = test: eNOS/phospho-eNOS, Akt/phospho-Akt and VEGFa expression in HUVECs; details: TNFα treatment
Description: FIGS. 28A through 28E show eNOS/phospho-eNOS, Akt/phospho-Akt and VEGFa protein and RNA expression. Total protein and RNA were extracted from ad-null or ad-BRCA1 infected HUVECs treated thereafter with TNFα for 24 hours. As shown in FIGS. 28A and 28C, TNFα markedly elevated eNOS protein levels in BRCA1-overexpressing cells. […] Data are presented as mean±SEM of three independent experiments (*p<0.05, **p<0.01).
BRCA1 also promoted eNOS, phospho-eNOS, phospho-Akt and VEGFa expression. Since eNOS is essential for endothelial function, the potential regulation of endothelial nitric oxide synthase (eNOS) expression and phosphorylation by BRCA1 was examined via western blot analysis.
as §1, with “Immunoblots were incubated with the appropriate horseradish peroxidase-associated secondary antibodies before signals were visualized by chemiluminescence via the ECL detection system (GE Healthcare).” left out
Total RNA extracted from HUVECs were reverse transcribed for quantitative assessment of VCAM1, ICAM1, E-selectin and VEGFa expressions by real-time PCR using the primer pairs listed in Table 4.

Q: Which “protein levels of p53 and GADD45” value (GADD45, p21 and p53) does the source give for TNFα here?
A: no influence

Q: And the p21 protein levels (GADD45, p21 and p53; in the presence and absence of BRCA1 overexpression)?
A: significantly elevate

Q: And the “migratory capacity of HUVECs” value (HUVECs)?
A: significantly hampered

Q: And the eNOS protein levels (eNOS, Akt, VEGFa)?
A: significant reduction
